From US10947188B2, “Small molecule ferroptosis inducers” (THE TRUSTEES OF COLUMBIA UNIVERSITY IN THE CITY OF NEW YORK, priority 2016, dated 2021)

Columns and labels:
BJeLR = experiment: Modulatory profiling: Alamar Blue viability, lethal compound cotreated with death modulator (EC50, AUC); type: cell-based, human; design: AUC, modulator BJ.Gd3+ / AUC, modulator BJ.LNAME / AUC, modulator BJ.Lmin / AUC, modulator BJ.3MA / AUC, modulator BJ.ALLN / AUC, modulator BJ.Boc D / AUC, modulator BJ.CHX / AUC, modulator BJ.Co2+ / AUC, modulator BJ.Nec-1 / AUC, modulator BJ.Pepstatin / AUC, modulator BJ.TLCK / AUC, modulator BJ.atoc / AUC, modulator BJ.trolox / AUC, modulator BJ.zVAD: unit not given beside the values; conditions: for AUC, modulator BJ.3MA / AUC, modulator BJ.ALLN / AUC, modulator BJ.Boc D / AUC, modulator BJ.CHX / AUC, modulator BJ.Co2+ / AUC, modulator BJ.DPQ / AUC, modulator BJ.Gd3+ / AUC, modulator BJ.LNAME / AUC, modulator BJ.Lmin/NAD+ / AUC, modulator BJ.Lmin / AUC, modulator BJ.NAD+ / AUC, modulator BJ.NMMA / AUC, modulator BJ.Nec-1 / AUC, modulator BJ.Pepstatin / AUC, modulator BJ.TLCK: BJeLR cells, modulatory profile value (AUC); for AUC, modulator BJ.3MA: lethal compound cotreated with modulator 3MA; for AUC, modulator BJ.ALLN: lethal compound cotreated with modulator ALLN; for AUC, modulator BJ.Boc D: lethal compound cotreated with modulator Boc D; for AUC, modulator BJ.CHX: lethal compound cotreated with modulator CHX; for AUC, modulator BJ.Co2+: lethal compound cotreated with modulator Co2+; for AUC, modulator BJ.DPQ: lethal compound cotreated with modulator DPQ; for AUC, modulator BJ.Gd3+: lethal compound cotreated with modulator Gd3+; for AUC, modulator BJ.LNAME: lethal compound cotreated with modulator LNAME; for AUC, modulator BJ.Lmin/NAD+: lethal compound cotreated with modulator Lmin/NAD+; for AUC, modulator BJ.Lmin: lethal compound cotreated with modulator Lmin; for AUC, modulator BJ.NAD+: lethal compound cotreated with modulator NAD+; for AUC, modulator BJ.NMMA: lethal compound cotreated with modulator NMMA; for AUC, modulator BJ.Nec-1: lethal compound cotreated with modulator Nec-1; for AUC, modulator BJ.Pepstatin: lethal compound cotreated with modulator Pepstatin; for AUC, modulator BJ.TLCK: lethal compound cotreated with modulator TLCK; for EC50: Homo sapiens, BJeLR, 48 h; as to AUC, modulator BJ.3MA: reference of the scale not given here; as to AUC, modulator BJ.ALLN: reference of the scale not given here; as to AUC, modulator BJ.Boc D: reference of the scale not given here; as to AUC, modulator BJ.CHX: reference of the scale not given here; as to AUC, modulator BJ.Co2+: reference of the scale not given here; as to AUC, modulator BJ.DPQ: reference of the scale not given here; as to AUC, modulator BJ.Gd3+: reference of the scale not given here; as to AUC, modulator BJ.LNAME: reference of the scale not given here; as to AUC, modulator BJ.NAD+: reference of the scale not given here; as to AUC, modulator BJ.NMMA: reference of the scale not given here; as to AUC, modulator BJ.Nec-1: reference of the scale not given here; as to AUC, modulator BJ.Pepstatin: reference of the scale not given here; as to AUC, modulator BJ.TLCK: reference of the scale not given here
HT-1080 = experiment: as above; type: cell-based; design: AUC, modulator HT.3MA / AUC, modulator HT.ALLN / AUC HT.ATA / AUC HT.ActD / AUC HT.BHA / AUC HT.BHT / AUC HT.BocD / AUC HT.CHX / AUC HT.Co2+ / AUC HT.DPQ / AUC HT.EGTA / AUC HT.Lmim / AUC HT.NAD+ / AUC HT.Nec-1 / AUC HT.SP600125 / AUC HT.TLCK / AUC HT.U0126: unit not given beside the values; conditions: for AUC HT.ATA: HT-1080, modulator ATA; for AUC HT.ActD: HT-1080, modulator ActD; for AUC HT.BHA: HT-1080, modulator BHA; for AUC HT.BHT: HT-1080, modulator BHT; for AUC HT.BocD: HT-1080, modulator BocD; for AUC HT.CHX: HT-1080, modulator CHX; for AUC HT.Co2+: HT-1080, modulator Co2+; for AUC HT.CspA: HT-1080, modulator CspA; for AUC HT.DPQ: HT-1080, modulator DPQ; for AUC HT.EGTA: HT-1080, modulator EGTA; for AUC HT.Gd3+: HT-1080, modulator Gd3+; for AUC HT.LNAME: HT-1080, modulator LNAME; for AUC HT.Lmim: HT-1080, modulator Lmim; for AUC HT.NAD+: HT-1080, modulator NAD+; for AUC HT.NMMA: HT-1080, modulator NMMA; for HT.atoc (AUC) / HT.bCarotene (AUC) / HT.deferox (AUC) / HT.digoxin (AUC) / HT.trolox (AUC) / HT.zVAD (AUC) / EC50: HT-1080; for HT.atoc (AUC): modulator atoc; for HT.bCarotene (AUC): modulator bCarotene; for HT.deferox (AUC): modulator deferox; for HT.digoxin (AUC): modulator digoxin; for HT.trolox (AUC): modulator trolox; for HT.zVAD (AUC): modulator zVAD; for EC50: Homo sapiens, HT-1080, 48 h, 48 h; as to AUC HT.BHA: reference of the scale not given here; as to AUC HT.EGTA: reference of the scale not given here
[1] = cotreated with antioxidant Trolox
[2] = cotreated with iron-chelator Lmim

Structure (SMILES): O=C(CCl)N(c1ccc(Cl)cc1)c1c[nH]c2ccccc12 [CIL75]
- AUC, modulator BJ.3MA (BJeLR): 0.04653
- AUC, modulator BJ.ALLN (BJeLR): 0.01301
- AUC, modulator BJ.Boc D (BJeLR): 0.03092
- AUC, modulator BJ.CHX (BJeLR): −0.009103
- AUC, modulator BJ.Co2+ (BJeLR): 0.2049
- AUC, modulator BJ.DPQ (BJeLR): −1.616E−05
- AUC, modulator BJ.Gd3+ (BJeLR): 0.0459
- AUC, modulator BJ.LNAME (BJeLR): 0.01184
- AUC, modulator BJ.Lmin/NAD+ (BJeLR): 0.2292
- AUC, modulator BJ.Lmin (BJeLR): 0.146
- AUC, modulator BJ.NAD+ (BJeLR): −0.01643
- AUC, modulator BJ.NMMA (BJeLR): −0.01449
- AUC, modulator BJ.Nec-1 (BJeLR): 0.1883
- AUC, modulator BJ.Pepstatin (BJeLR): 0.07275
- AUC, modulator BJ.TLCK (BJeLR): 0.2311
- EC50 (BJeLR; DMSO): 59.8 nM
- EC50 (BJeLR; cotreated with Lmim_NAD): 314 nM
- EC50 (BJeLR; [1]): 1100 nM
- EC50 (BJeLR; cotreated with antioxidant atoc): 1040 nM
- EC50 (BJeLR; [2]): 341 nM
- AUC HT.ATA (HT-1080): −0.01715
- AUC HT.ActD (HT-1080): 0.01892
- AUC HT.BHA (HT-1080): 0.3131
- AUC HT.BHT (HT-1080): 0.2828
- AUC HT.BocD (HT-1080): −0.01219
- AUC HT.CHX (HT-1080): 0.0402
- AUC HT.Co2+ (HT-1080): 0.1217
- AUC HT.CspA (HT-1080): −0.009674
- AUC HT.DPQ (HT-1080): 0.01971
- AUC HT.EGTA (HT-1080): −0.007018
- AUC HT.Gd3+ (HT-1080): −0.02285
- AUC HT.LNAME (HT-1080): −0.01737
- AUC HT.Lmim (HT-1080): 0.2499
- AUC HT.NAD+ (HT-1080): −0.002594
- AUC HT.NMMA (HT-1080): −0.02794
- HT.atoc (AUC) (HT-1080): 0.3816
- HT.bCarotene (AUC) (HT-1080): −0.01871
- HT.deferox (AUC) (HT-1080): 0.4009
- HT.digoxin (AUC) (HT-1080): −0.037
- HT.trolox (AUC) (HT-1080): 0.3452
- HT.zVAD (AUC) (HT-1080): 0.0001191
- effect of ferroptosis inhibitors (iron chelators and lipophilic antioxidants) on lethality in modulatory profiling (HT-1080; HT-1080 and BJeLR): suppression by canonical ferroptosis inhibitors
- EC50 (HT-1080; DMSO): 144 nM
- EC50 (HT-1080; cotreated with MEK inh U0126): 2530 nM
- EC50 (HT-1080; cotreated with antioxidant Atoc): 2940 nM
- EC50 (HT-1080; cotreated with antioxidant BHA): 2750 nM
- EC50 (HT-1080; cotreated with antioxidant BHT): 1720 nM
- EC50 (HT-1080; [1]): 2560 nM
- EC50 (HT-1080; cotreated with iron-chelator Deferoxamine): 4820 nM
- EC50 (HT-1080; [2]): 2470 nM

Structure (SMILES): C=CCC1(Cl)C(=O)C(Cl)=C(n2ccnc2)C1(OC)OC (centres unmarked) [CIL76]
- AUC, modulator BJ.3MA (BJeLR): −0.03638
- AUC, modulator BJ.ALLN (BJeLR): −0.0536
- AUC, modulator BJ.Boc D (BJeLR): 0.03237
- AUC, modulator BJ.CHX (BJeLR): 0.2608
- AUC, modulator BJ.Co2+ (BJeLR): 0.1676
- AUC, modulator BJ.DPQ (BJeLR): 0.007351
- AUC, modulator BJ.Gd3+ (BJeLR): 0.01565
- AUC, modulator BJ.LNAME (BJeLR): 0.004345
- AUC, modulator BJ.Lmin/NAD+ (BJeLR): −0.02656
- AUC, modulator BJ.Lmin (BJeLR): −0.005829
- AUC, modulator BJ.NAD+ (BJeLR): 0.004895
- AUC, modulator BJ.NMMA (BJeLR): −0.01937
- AUC, modulator BJ.Nec-1 (BJeLR): −0.0283
- AUC, modulator BJ.Pepstatin (BJeLR): 0.0213
- AUC, modulator BJ.TLCK (BJeLR): −0.008689
- AUC HT.ATA (HT-1080): 0.04513
- AUC HT.ActD (HT-1080): 0.04286
- AUC HT.BHA (HT-1080): 0.000578
- AUC HT.BHT (HT-1080): −0.08655
- AUC HT.BocD (HT-1080): −0.02767
- AUC HT.CHX (HT-1080): 0.1505
- AUC HT.Co2+ (HT-1080): 0.1531
- AUC HT.CspA (HT-1080): −0.005998
- AUC HT.DPQ (HT-1080): 0.01554
- AUC HT.EGTA (HT-1080): −0.02151
- AUC HT.Gd3+ (HT-1080): −0.0293
- AUC HT.LNAME (HT-1080): 0.0222
- AUC HT.Lmim (HT-1080): 0.007964
- AUC HT.NAD+ (HT-1080): 0.00781
- AUC HT.NMMA (HT-1080): −0.007942
- HT.atoc (AUC) (HT-1080): 0.003265
- HT.bCarotene (AUC) (HT-1080): −0.00713
- HT.deferox (AUC) (HT-1080): 0.1376
- HT.digoxin (AUC) (HT-1080): 0.01032
- HT.trolox (AUC) (HT-1080): −0.02707
- HT.zVAD (AUC) (HT-1080): 0.032
